In patent US10124012B2, “Method for treatment of hyperglycemia and hyperlipidemia” (priority 2016, dated 2018):

Tests used:
Type in all cases: in vivo, C57BL/6J mice
[1] = test system: high-fat diet-fed C57BL/6J mouse; experiment: Hepatic lipids in HFD-fed mice
Procedure: Animal studies were performed and approved under the guidelines of the Institutional Animal Care and Use Committee in Taiwan (12 Mar. 2015). […] After acclimatization for one week, all of the mice were randomly assigned into a control (CON) group and a high-fat diet (HFD) group. For the following 12 weeks, the CON group (n=9) received a control diet or a low-fat diet (Diet 12450B, Research Diets, Inc., New Brunswick, N.J., USA), while the HFD group (n=54) received a high-fat diet (Diet 12451, Research Diets, New Brunswick, N.J., USA). […] After HFD feeding for 8 weeks, the HFD group was randomly subdivided into six groups (n=9 per group) receiving different treatments and fed on HFD. […] The HF+AnK1, HF+AnK2, and HF+AnK3 groups are collectively termed AnK-treated HFD groups in the following examples. The CON mice were administered vehicle. All treatments were administered via oral gavage once daily. After administration for 4 weeks, all mice were fasted 12 hours, and blood was collected from the retro-orbital sinus under ether anesthesia. At the end of the experiment, the mice were sacrificed via carbon dioxide inhalation. Liver, adipose tissue, and skeletal muscle were collected and immediately stored at −80° C. for target gene analysis.

[2] = test system: G6Pase; experiment: Liver mRNA by semi-quantitative RT-PCR: G6Pase; settings: HFD-fed mice, oral gavage once daily 4 weeks, AnK 10, 20, 40, Feno 250, Metf 300 mg/kg/day, vs HF group
Text: (§1) The 4-week old male C57BL/6J mice (total amount n=63) were obtained from the National Laboratory Animal Center (Taipei, Taiwan). After acclimatization for one week, all of the mice were randomly assigned into a control (CON) group and a high-fat diet (HFD) group. […] After HFD feeding for 8 weeks, the HFD group was randomly subdivided into six groups (n=9 per group) receiving different treatments and fed on HFD. […] The HF+AnK1, HF+AnK2, and HF+AnK3 groups are collectively termed AnK-treated HFD groups in the following examples. The CON mice were administered vehicle. All treatments were administered via oral gavage once daily. After administration for 4 weeks, all mice were fasted 12 hours, and blood was collected from the retro-orbital sinus under ether anesthesia. […]
(§2) Total RNA from liver tissue of mice was isolated with a Trizol Reagent (Molecular Research Center, Inc., Cincinnati, Ohio, USA) according to the manufacturer's instructions. The integrity of the extracted total RNA was examined by 2% agarose gel electrophoresis, and the RNA concentration was determined by the ultraviolet (UV) light absorbency at 260 nm and 280 nm (Spectrophotometer U-2800A, Hitachi). […]
(§3) Levels of mRNA of target genes were quantified by semi-quantitative reverse transcription polymerase chain reaction (RT-PCR). […] PCR products were analyzed by 2% agarose gel and stained with ethidium bromide.

[3] = test system: SREBP1c; experiment: Liver mRNA by semi-quantitative RT-PCR: SREBP1c; settings: HFD-fed mice, oral gavage once daily 4 weeks, AnK 10, 20, 40, Feno 250, Metf 300 mg/kg/day, vs HF group
Text: as §1, §2, §3

[4] = test system: aP2; experiment: Liver mRNA by semi-quantitative RT-PCR: aP2; settings: HFD-fed mice, oral gavage once daily 4 weeks, AnK 10, 20, 40, Feno 250, Metf 300 mg/kg/day, vs HF group
Text: as §1, §2, §3

[5] = test system: phospho-AMPK (Thr^172)/total-AMPK; experiment: Western blotting of phospho-AMPK/total-AMPK in skeletal muscle and liver; settings: HFD-induced reduction, AnK 10, 20, 40, Feno 250, Metf 300 mg/kg/day, vs HF group
Text: (§4) The 4-week old male C57BL/6J mice (total amount n=63) were obtained from the National Laboratory Animal Center (Taipei, Taiwan). After acclimatization for one week, all of the mice were randomly assigned into a control (CON) group and a high-fat diet (HFD) group. […] After HFD feeding for 8 weeks, the HFD group was randomly subdivided into six groups (n=9 per group) receiving different treatments and fed on HFD. […] The HF+AnK1, HF+AnK2, and HF+AnK3 groups are collectively termed AnK-treated HFD groups in the following examples. The CON mice were administered vehicle. All treatments were administered via oral gavage once daily. After administration for 4 weeks, all mice were fasted 12 hours, and blood was collected from the retro-orbital sinus under ether anesthesia. At the end of the experiment, the mice were sacrificed via carbon dioxide inhalation. Liver, adipose tissue, and skeletal muscle were collected and immediately stored at −80° C. for target gene analysis.
(§5) About 0.1 g of liver tissue, skeletal muscle, or adipose tissue was used for the homogenate samples. Samples were powdered under liquid nitrogen and homogenized for 20 seconds in 500 μL buffer containing 20 mM Tris-HCl (pH 7.4 at 4° C.), 2% SDS, 5 mM EDTA, 5 mM EGTA, 1 mM dithiothreitol (DTT), 100 mM NaF, 2 mM sodium vanadate, 0.5 mM phenylmethylsulfonyl fluoride, 10 μg/mL leupeptin, and 10 μL/mL pepstatin. The total membrane fraction was used for measurement. The protein concentration in supernatant was determined with a BCA protein assay kit (Thermo Scientific, Rockford, Ill., USA). […] The membrane was blocked with 5% slim milk in Tris-buffered saline (TBS)(Amersham BioSciences, Uppsala, Sweden) containing 0.05% Tween-20 (Bio Rad, CA, USA) and incubated overnight at 4° C. with antibodies at 1:200 dilution. Subsequently, the membrane was washed three times with TBS containing 0.05% Tween-20 and incubated with secondary antibody anti-rabbit (1:1000)(Jackson ImmunoResearch Laboratories, Inc., PA, USA) for 1 hour. Immunoreactive bands were detected with ECL reagent kit (GE Healthcare BioSciences, Buckinghamshire, UK). The intensity of Western blot signals was analyzed using AlphaEase FC software (Alpha Innotech Corporation, Randburg, South Africa). The structural protein GAPDH in the samples was used as the loading control.

[6] = test system: phospho-Akt (Ser^473)/total-Akt; experiment: Western blotting of phospho-Akt/total-Akt in skeletal muscle and liver; settings: HFD-induced reduction, AnK 10, 20, 40, Feno 250, Metf 300 mg/kg/day, vs HF group
Text: as §4, §5

[7] = HF + Metf: metformin 300 mg/kg/day oral gavage 4 weeks
[8] = HF + AnK1: AnK 10 mg/kg/day oral gavage 4 weeks
[9] = HF + AnK2: AnK 20 mg/kg/day oral gavage 4 weeks
[10] = HF + AnK3: AnK 40 mg/kg/day oral gavage 4 weeks

CN(C)C(=N)N=C(N)N [Metf, metformin, reference compound]
Liver lipids total lipid [1, 7]: 65.3 ± 4.9 mg/g | Liver lipids triacylglycerol [1, 7]: 45.4 ± 4.2 µmol/g | mRNA levels of G6Pase [2]: significantly decreased | mRNA levels of SREBP1c [3]: significantly decreased | mRNA levels of aP2 [4]: significantly decreased | expression levels of phospho-AMPK/total-AMPK ([5]; liver): significantly reversed | expression levels of phospho-AMPK/total-AMPK ([5]; skeletal muscle): significantly reversed | expression levels of phosphor-Akt/total-Akt ([6]; liver): significantly reversed | expression levels of phosphor-Akt/total-Akt ([6]; skeletal muscle): significantly reversed

C=C(CC[C@@H](C)[C@H]1CC[C@H]2C3=C(C(=O)C[C@]12C)[C@@]1(C)CC[C@@H](O)[C@](C)(O)[C@@H]1C[C@@H]3O)C(C)C(=O)O (stereo partly drawn) [AnK, 3α,4β,7β-trihydroxy-4α-methylergosta-8,24(28)-dien-11-on-25S-26-oic acid]
Liver lipids total lipid [1, 8]: 73.1 ± 4.7 mg/g | Liver lipids triacylglycerol [1, 8]: 56.3 ± 4.2 µmol/g | Liver lipids total lipid [1, 9]: 66.0 ± 4.8 mg/g | Liver lipids triacylglycerol [1, 9]: 45.7 ± 3.9 µmol/g | Liver lipids total lipid [1, 10]: 64.5 ± 5.2 mg/g | Liver lipids triacylglycerol [1, 10]: 45.2 ± 4.6 µmol/g | mRNA levels of G6Pase [2]: significantly decreased | mRNA levels of SREBP1c [3]: significantly decreased | mRNA levels of aP2 [4]: significantly decreased | expression levels of phospho-AMPK/total-AMPK ([5]; liver): significantly reversed | expression levels of phospho-AMPK/total-AMPK ([5]; skeletal muscle): significantly reversed | expression levels of phosphor-Akt/total-Akt ([6]; liver): significantly reversed | expression levels of phosphor-Akt/total-Akt ([6]; skeletal muscle): significantly reversed
